Values quoted from earlier work, collected in publication PMC7914841, “Systemic Delivery of hGhrelin Derivative by Lyophilizate for Dry Powder Inhalation System in Monkeys” (Pharmaceutics, 2021).
Where no end group is shown, it is not given here. The star is where a group is joined. Octanoyl = CCCCCCCC(=O)*

Tested on: growth hormone (GH) release
Conditions: healthy humans, intravenously injected

ghrelin: peptide hormone of 28 amino acids, O-n-octanoylated at the 3rd serine residue (GSS(Octanoyl)FLSPEHQRVQQRKESKKPPAKLQPR; UniProt Q9UBU3 24-51, looked up)
ratio of AUC of GH, 5 µg/kg vs 1 µg/kg: 1.3–1.6 times
